This note sets out measurements from US12433858B2, “Substituted cycloalkanes for managing nephrogenic diabetes insipidus” (NephroDI Therapeutics, Inc., priority 2017, dated 2025).

For one data set, the system named is V2R knock-out NDI mice. Kind of data set: V2R knock-out mouse genetic model of NDI, 24-hour urine osmolality. The class given is in vivo. On the procedure:
(§1) NDI-5033 was tested to determine an initial time course and sustainability of the anti-diuretic response. Rats were given tolvaptan to initiate NDI. They were then fed 100 mg/kg/day with NDI-5033 for 3 days (FIG. 2A). […] To ensure that the observed efficacy is not compromised by potential binding of NDI-5033 to V2R, NDI-5033 was given to mice in which the V2R was genetically knocked out yielding a genetic model of NDI (FIG. 2B). Control mice received no drug. NDI-5033 was given by injection to the mice and 24-hour urine collected and assessed for urine osmolality. NDI-5033 produced a 50% improvement in urine concentration.
(§2) Tolvaptan induced NDI rats were prepared and fed with doses of NDI-5033 from 0 to 100 mg/kg/day in a series of experiments. […] To confirm the effectiveness of the 25 mg/kg/day dose, NDI-5033 was given to V2R knock-out NDI mice and 24-hour urines were assessed for urine osmolality (FIG. 3B). The osmolality was increased in NDI mice after treatment with 25 mg/kg/day of NDI-5033.

For data set [1], the system named is Tolvaptan induced NDI rats. In words: Tolvaptan-induced NDI rat model, urine concentration. In kind it is in vivo. On the procedure: Rats were given tolvaptan to induce NDI. Tolvaptan binds to and blocks the vasopressin type 2 receptor (V2R) and renders the animals insensitive to vasopressin-induced antidiuresis. The efficacy of three compounds of Formula I were evaluated. Each rat was gavage fed with 10 mg/kg/day of tolvaptan in the carrier solution (1% hydroxypropylmethyl cellulose in water) for 3 days to prepare the NDI model. The drugs were added to the gavage feeding solution and delivered daily for 4 days (NDI-5001, 200 mg/kg/day; NDI-5033 or NDI-5037, 50 mg/kg/day). Control rats were sham gavage fed.
as §1, §2
(§3) An experiment was designed to approximate hypoglycemia in the tolvaptan-treated rat NDI model to look for hypoglycemia. A timeline for the experiment is illustrated in FIG. 4A. The rats were given tolvaptan beginning Day negative 3. On Day zero half of the rats started to receive 25 mg/kg/day of NDI-5033. After observing an improvement in the urine concentration, the animals were exercised daily for 5 days. Food was removed from the animals and NDI-5033 was given, then 4 hours later rats were subjected to 30 minutes of treadmill running. Blood glucose measurements were taken before and after the bout of exercise. Food was restored. The process was repeated daily for 5 days. The average urine osmolality and urine volumes in the NDI rats not receiving NDI-5033 (control) or receiving 25 mg/kg/day NDI-5033 is shown in FIG. 4B. Urine osmolality was increased (p<0.05) and urine volume decreased (p<0.07) upon drug treatment. […] For each day, patterned bars are from rats not receiving NDI-5033. The leftmost bar (diagonal) is before and to the right is after exercise. The next two bars show blood glucose values for rats receiving NDI-5033. Solid black is before and solid white is after exercise.

Data set [2] in a line: Hypoglycemia evaluation on chronic dosing in exercised tolvaptan-treated NDI rats (blood glucose). Particulars: 25 mg/kg/day, daily for 5 days. In kind it is in vivo, rat. The protocol:
as §3

The mark [3] stands for this setting: 100 mg/kg/day for 3 days, tolvaptan NDI rats.
Setting [4] is: food removed, 30 minutes treadmill 4 hours after dose.

Entries after “also recorded” stand apart in the source; their conditions may differ.

Turning to `NC(=O)C1(CCCCCCCCCCCCC2(C(N)=O)CC2)CC1` [NDI-5033, 1,1′-(dodecane-1,12-diyl)bis(cyclopropane-1-carboxamide)], the “urine osmolality (in words)” value in the data set with V2R knock-out NDI mice (25 mg/kg/day, 24-hour urines, FIG. 3B) was “increased”. Also, in the data set on V2R knock-out NDI mice (given by injection, 24-hour urine, versus control mice receiving no drug), the “improvement in urine concentration” value is given as 50%. Also, the “average urine osmolality (in words)” value in data set [1] (25 mg/kg/day versus control NDI rats, exercise study, p<0.05, FIG. 4B) is “increased”. Further, the “average urine volume (in words)” value in data set [1] (25 mg/kg/day versus control NDI rats, exercise study, p<0.07, FIG. 4B) was “decreased”. For the same molecule, in data set [1] (setting [3]), the “duration for which anti-diuretic response is sustained” value is on record as 3 days and the “time to anti-diuretic effect after initial treatment” value was at most 24 h. Besides, the “urine concentrating ability (urine osmolality) as percent of untreated, fully concentrating rats (basal, set to 100%)” value in data set [1] (NDI-5033 50 mg/kg/day by gavage daily for 4 days, after tolvaptan 10 mg/kg/day for 3 days) is reported as 75 % of normal. The “dose showing statistically significant improvements in urine concentrations” value in data set [1] (dose response 0 to 100 mg/kg/day, FIG. 3A) is at least 10 mg/kg/day. In addition, the “urine osmolality (in words)” value in data set [1] (dosed with NDI inducing agent tolvaptan, FIG. 2A, 100 mg/kg/day for 3 days) is “increases urine osmolality”. Further, the “efficacy / urine concentrating ability (in words)” value in data set [1] (gavage daily for 4 days, NDI-5001 200 mg/kg/day, NDI-5033 or NDI-5037 50 mg/kg/day, tolvaptan NDI rats) is listed as “improve urine concentrating ability”. For the same molecule, the hypoglycemia entry in data set [2] (exercised NDI rats) is “no evidence of hypoglycemia; also recorded: do not experience hypoglycemia”. Also, in data set [2] (setting [4]), the “blood glucose before versus after exercise” value was “no statistical difference” and the “blood glucose relative to normal range for rats” value is “within the normal range”.
`Cc1ccccc1C(=O)Nc1ccc(C(=O)N2CCCC(O)c3cc(Cl)ccc32)c(C)c1` (centres unmarked) [tolvaptan, reference compound]: in data set [1] (tolvaptan 10 mg/kg/day by gavage for 3 days, NDI induction), the “urine osmolality as percent of the normal animal” value is listed as 10 % of the normal animal.
